From patent US20110045065A1, “SUBSTANCE HAVING ANTIOXIDANT, GEROPROTECTIVE AND ANTI-ISCHEMIC ACTIVITY AND METHOD FOR THE PREPARATION THEREOF” (priority 2005, published 2011) come the findings set out here.

Test [1] concerns external segments of photoreceptor cells. Kind of test: Ascorbate-induced peroxidation of external segments of photoreceptor cells. The class given is biochemical, pig. The conditions noted are these: for Inhibition: 30 min of reacting; for Concentration of TBK-active products: 17 mM compound, 0.5 mM ascorbic acid. From the text:
The external segments of photoreceptor cells are obtained from pig retinas according to standard procedure, using methods of differential centrifuging in a saccharose density gradient. […] Subsequently, the process was stopped by 15% trichloroacetic acid, and the concentration of TBK-active products has been determined. Samples being free of compound Ic were used as a control.
In these experiments a comparison of the speed of ascorbate-induced peroxidation of external segments of photoreceptor cells of pig eyes has been carried out, said comparison being determined with respect to the accumulation of TBK-active products in the presence of different compound I salts.

Test [2] relates to acute myocardial ischemia (occlusion of the coronary artery of rats). Kind of test: Sizes of necrosis and ischemia zones in acute myocardial ischemia. It counts as in vivo, rat. The conditions noted are these: rats, within 4 hours after occlusion of the coronary artery. As for the experimental part: The experiments are carried out with non-pedigree male rats having a weight of 250-300 g, which have been anesthetized with sodium ethaminale (40 mg/kg intraperitoneally). A myocardial infarction was modeled for animals, transferred to controlled breathing, by ligation of a descending branch of the left-hand coronary artery to a level of the lower edge of an auricula atrii.
The sizes of necrosis zones and ischemia zones have been determined within 4 hours after occlusion of the coronary artery by a differential indicator method, the principle of which is based on separate quantitative determination of Evans' blue (indicator of an ischemia zone) and red phormazane (indicator of an necrosis zone).

Test [3] is described as follows: Antiradical activity by chemiluminescence (rate constant k7). The conditions noted are these: speed constant of reaction with ethyl-benzene peroxide radicals. It counts as physicochemical. As for the experimental part: The efficiency of 3-hydroxypyridine derivatives as inhibitors of free radical reactions was determined by hemiluminescent method by means of measurement of speed constants of their reaction with ethyl-benzene k7 peroxide radicals.
The measurements of intensity of chemiluminescence (HL) have been carried out with an apparatus CNK-7, designed and made by IHF RAN USSR. A photomultiplier FAU-38 is used as an optical receiver. The fixed concentration of radicals during oxidation of […] (cumole) is controlled by an initiator being azo-bis-isobutyronitrile.
In order to increase HL emission the activator chelate Eu (europium tristenoyl triphtoroacetonate with 1,10-phenatroline) has been used that has allowed to conduct measurements at low speed values of radical initiation (W1=10^−8-10^−9 mol/I.s.) and, therefore, at small amounts of added sample. A weighed amount of samples studied was diluted in an suitable solvent (chlorobenzene or acetonitrile) and a small amount of the prepared solution (0.1-0.25 ml) was added to the reaction mixture (5-6 ml), arranged in a temperature-controlled reaction vessel of the HL-device. The change of emission intensity was recorded.

The test system of test [4] is lipofuscin induced cardiolipin photoperoxidation. Nature of the test: Inhibition of lipofuscin induced cardiolipin liposome photoperoxidation. It counts as biochemical, human. The conditions noted are these: for Concentration of TBK-active products / Inhibition: 2 mM compound. As for the experimental part: Liposomes are prepared from methanolic solution of cardiolipin (initial concentration: 5 mg/ml) by evaporation of methanol and solubilization of cardiolipin in a phosphate buffer. A mixture comprising a suspension of liposomes and lipofuscin granules, isolated from tissue of a retinal pigmentary epithelium of a human eye, is subjected to irradiation with intensive blue light under constant stirring. Concentration of lipid peroxidation products (TBK-active products) is determined after 20, 40, 60 and 90 minutes. The experimental sample contained 2 mM of a solution of compound Ic, or 2 mM of a solution of mexydole.

On to `Cc1cc(C)c(O)c(C)n1.O=C(O)C(=O)O` [Compound Ia, 2,4,6-trimethyl-3-oxypyridine oxalate], for which, in test [1] (compound 44 mM), the “Speed of accumulation of TBK-active products for 30 min of reacting” value (shortened to “Speed”) is 0 nmol/mg and the Inhibition came out at 100%.
On to `Cc1cc(C)c(O)c(C)n1.O=C(O)CC(=O)O` [Compound Ib, 2,4,6-trimethyl-3-oxypyridine malonate], for which the “Speed” value in test [1] (compound 44 mM) amounted to 0.23 nmol/mg. Further, the Inhibition in test [1] (compound 44 mM) stood at 70%. The “Concentration of TBK-active products” value in test [1] (response time 0 min) was determined as 1 relative units; in test [1] (response time 15 min), 2.70 relative units; in test [1] (response time 30 min) it was 5.09 relative units.
On to `Cc1cc(C)c(O)c(C)n1.O=C(O)CC(O)C(=O)O` [Compound Id, 2,4,6-trimethyl-3-oxypyridine malate], for which, in test [1] (compound 43 mM), the “Speed” value is reported as 0.1 nmol/mg and the Inhibition worked out at 87%.
For `CCc1ccc(O)c(C)n1.O=C(O)CCC(=O)O` [Mexydole, 2-methyl-6-ethyl-3-hydroxypyridine succinate, reference compound], in test [2] (26 mg/kg), the “Ratio of necrosis zone to ischemia zone” value is reported as 46 ± 5.6%. Moreover, in test [2] (26 mg/kg), the “Ratio of necrosis zone to total mass of the myocardium” value worked out at 8 ± 1.4%. Also, the “k7 × 10^−4” value in test [3] worked out at 4.5 l/mol × sec. Also, the “Concentration of TBK-active products” value is reported as 1.83 nmol/mg lipid in test [4] (radiation time 0 min); 2.84 nmol/mg lipid in test [4] (radiation time 20 min); 3.5 nmol/mg lipid in test [4] (radiation time 40 min); 4.5 nmol/mg lipid in test [4] (radiation time 60 min); 5.0 nmol/mg lipid in test [4] (radiation time 90 min). Further, the Inhibition is 0% in test [4] (radiation time 0 min); 5% in test [4] (radiation time 20 min); 0% in test [4] (radiation time 40 min); 0% in test [4] (radiation time 60 min); 7% in test [4] (radiation time 90 min). The “Inhibiting / protective effect regarding phototoxic action of lipofuscin granules” value in test [4] (result in words) is on record as “practically did not show an inhibiting effect”.
For the compound `O=C(NCCO[N+](=O)[O-])c1cccnc1` [Nicorandile], in test [2] (12 mg/kg), the “Ratio of necrosis zone to ischemia zone” value amounted to 42 ± 5.4% and the “Ratio of necrosis zone to total mass of the myocardium” value is reported as 10 ± 1.6%.
